From PubChem BioAssay (NCI)
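Grown in 96-well plates, cells were treated for 48 hours with each compound at five concentrations. Insufficient inhibition: endpoint recorded as highest concentration tested. At the TGI there is no net growth.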

Assays:
Experiment in all cases: DTP human tumour cell line panel, 48 h
786-0 renal = system: 786-0 renal
A498 renal = system: A498 renal
A549 NSCLC = system: A549 NSCLC
ACHN renal = system: ACHN renal
BT-549 breast = system: BT-549 breast
CAKI-1 renal = system: CAKI-1 renal
CCRF-CEM leukemia = system: CCRF-CEM leukemia
COLO 205 colon = system: COLO 205 colon
DU-145 prostate = system: DU-145 prostate
EKVX NSCLC = system: EKVX NSCLC
HCC-2998 colon = system: HCC-2998 colon
HCT-116 colon = system: HCT-116 colon
HCT-15 colon = system: HCT-15 colon
HL-60(TB) leukemia = system: HL-60(TB) leukemia
HOP-62 NSCLC = system: HOP-62 NSCLC
HOP-92 NSCLC = system: HOP-92 NSCLC
HS 578T breast = system: HS 578T breast
HT29 colon = system: HT29 colon
IGROV1 ovarian = system: IGROV1 ovarian
K-562 leukemia = system: K-562 leukemia
KM12 colon = system: KM12 colon
LOX IMVI melanoma = system: LOX IMVI melanoma
M14 melanoma = system: M14 melanoma
MALME-3M melanoma = system: MALME-3M melanoma
MCF7 breast = system: MCF7 breast
MDA-MB-231 breast = system: MDA-MB-231 breast
MDA-MB-435 = system: MDA-MB-435
MDA-N = system: MDA-N
MOLT-4 leukemia = system: MOLT-4 leukemia
NCI-H226 lung = system: NCI-H226 lung
NCI-H23 lung = system: NCI-H23 lung
NCI-H460 lung = system: NCI-H460 lung
NCI-H522 lung = system: NCI-H522 lung
NCI/ADR-RES ovarian = system: NCI/ADR-RES ovarian
OVCAR-3 ovarian = system: OVCAR-3 ovarian
OVCAR-4 ovarian = system: OVCAR-4 ovarian
OVCAR-5 ovarian = system: OVCAR-5 ovarian
OVCAR-8 ovarian = system: OVCAR-8 ovarian
PC-3 prostate = system: PC-3 prostate
RPMI-8226 leukemia = system: RPMI-8226 leukemia
RXF 393 renal = system: RXF 393 renal
SF-268 CNS = system: SF-268 CNS
SF-295 CNS = system: SF-295 CNS
SF-539 CNS = system: SF-539 CNS
SK-MEL-2 melanoma = system: SK-MEL-2 melanoma
SK-MEL-28 melanoma = system: SK-MEL-28 melanoma
SK-MEL-5 melanoma = system: SK-MEL-5 melanoma
SK-OV-3 ovarian = system: SK-OV-3 ovarian
SN12C renal = system: SN12C renal
SNB-19 CNS = system: SNB-19 CNS
SR leukemia = system: SR leukemia
SW-620 colon = system: SW-620 colon
T-47D breast = system: T-47D breast
TK-10 renal = system: TK-10 renal
U251 CNS = system: U251 CNS
UACC-257 melanoma = system: UACC-257 melanoma
UACC-62 melanoma = system: UACC-62 melanoma
UO-31 renal = system: UO-31 renal
DLD-1 colon = system: DLD-1 colon
DMS 114 small cell lung = system: DMS 114 small cell lung
DMS 273 small cell lung = system: DMS 273 small cell lung
LXFL 529 NSCLC = system: LXFL 529 NSCLC
SNB-75 CNS = system: SNB-75 CNS

Work on `Cc1cc(C)n2nc3nc(N)c(C#N)c(-c4ccccc4)c3c2n1` yielded a TGI (786-0 renal) greater than 100 µM, a TGI (A498 renal) greater than 100 µM and a TGI (A549 NSCLC) greater than 100 µM. For the same compound, the TGI (ACHN renal) was greater than 100 µM, the TGI (BT-549 breast) was greater than 100 µM and the TGI (CAKI-1 renal) was greater than 100 µM. It also gave a TGI (CCRF-CEM leukemia) greater than 100 µM, a TGI (COLO 205 colon) greater than 100 µM and a TGI (DU-145 prostate) greater than 100 µM. For the same compound, the TGI (EKVX NSCLC) was greater than 100 µM, the TGI (HCC-2998 colon) was greater than 100 µM and the TGI (HCT-116 colon) was greater than 100 µM. For the same compound, the TGI (HCT-15 colon) was greater than 100 µM, the TGI (HL-60(TB) leukemia) was greater than 100 µM and the TGI (HOP-62 NSCLC) was greater than 100 µM. It also gave a TGI (HOP-92 NSCLC) greater than 100 µM, a TGI (HS 578T breast) greater than 100 µM and a TGI (HT29 colon) greater than 100 µM. It also gave a TGI (IGROV1 ovarian) greater than 100 µM, a TGI (K-562 leukemia) greater than 100 µM and a TGI (KM12 colon) greater than 100 µM. The TGI (LOX IMVI melanoma) was greater than 100 µM, the TGI (M14 melanoma) was greater than 100 µM and the TGI (MALME-3M melanoma) was greater than 100 µM. It also gave a TGI (MCF7 breast) greater than 100 µM, a TGI (MDA-MB-231 breast) greater than 100 µM and a TGI (MDA-MB-435) greater than 100 µM. The TGI (MDA-N) was greater than 100 µM, the TGI (MOLT-4 leukemia) was greater than 100 µM and the TGI (NCI-H226 lung) was greater than 100 µM. The TGI (NCI-H23 lung) was greater than 100 µM, the TGI (NCI-H460 lung) was greater than 100 µM and the TGI (NCI-H522 lung) was greater than 100 µM. It also gave a TGI (NCI/ADR-RES ovarian) greater than 100 µM, a TGI (OVCAR-3 ovarian) greater than 100 µM and a TGI (OVCAR-4 ovarian) greater than 100 µM. The TGI (OVCAR-5 ovarian) was greater than 100 µM, the TGI (OVCAR-8 ovarian) was greater than 100 µM and the TGI (PC-3 prostate) was greater than 100 µM. It also gave a TGI (RPMI-8226 leukemia) greater than 100 µM, a TGI (RXF 393 renal) greater than 100 µM and a TGI (SF-268 CNS) greater than 100 µM. It also gave a TGI (SF-295 CNS) greater than 100 µM, a TGI (SF-539 CNS) greater than 100 µM and a TGI (SK-MEL-2 melanoma) greater than 100 µM. The TGI (SK-MEL-28 melanoma) was greater than 100 µM, the TGI (SK-MEL-5 melanoma) was greater than 100 µM and the TGI (SK-OV-3 ovarian) was greater than 100 µM. It also gave a TGI (SN12C renal) greater than 100 µM, a TGI (SNB-19 CNS) greater than 100 µM and a TGI (SR leukemia) greater than 100 µM. For the same compound, the TGI (SW-620 colon) was greater than 100 µM, the TGI (T-47D breast) was greater than 100 µM and the TGI (TK-10 renal) was greater than 100 µM. It also gave a TGI (U251 CNS) greater than 100 µM, a TGI (UACC-257 melanoma) greater than 100 µM and a TGI (UACC-62 melanoma) greater than 100 µM. For the same compound, the TGI (UO-31 renal) was greater than 100 µM.

With `COc1cc([C@H]2Oc3cc(O)c4c(=O)cc(-c5ccccc5)oc4c3O[C@@H]2CO)ccc1O` the TGI (786-0 renal) was 61.2 µM, the TGI (A498 renal) was 73.4 µM and the TGI (ACHN renal) was 63.8 µM. The TGI (CAKI-1 renal) was 79.1 µM, the TGI (CCRF-CEM leukemia) was greater than 100 µM and the TGI (COLO 205 colon) was greater than 100 µM. It also gave a TGI (DLD-1 colon) greater than 100 µM, a TGI (DMS 114 small cell lung) greater than 100 µM and a TGI (DMS 273 small cell lung) greater than 100 µM. The TGI (HCC-2998 colon) was greater than 100 µM, the TGI (HCT-116 colon) was greater than 100 µM and the TGI (HCT-15 colon) was greater than 100 µM. The TGI (HL-60(TB) leukemia) was greater than 100 µM, the TGI (HOP-62 NSCLC) was greater than 100 µM and the TGI (HOP-92 NSCLC) was 58.1 µM. It also gave a TGI (IGROV1 ovarian) greater than 100 µM, a TGI (K-562 leukemia) greater than 100 µM and a TGI (LXFL 529 NSCLC) of 77 µM. The TGI (M14 melanoma) was greater than 100 µM, the TGI (MALME-3M melanoma) was 46.3 µM and the TGI (MOLT-4 leukemia) was greater than 100 µM. For the same compound, the TGI (NCI-H226 lung) was 80.1 µM, the TGI (NCI-H23 lung) was 69.2 µM and the TGI (NCI-H522 lung) was 72 µM. For the same compound, the TGI (OVCAR-4 ovarian) was 89.4 µM, the TGI (RPMI-8226 leukemia) was greater than 100 µM and the TGI (SF-268 CNS) was greater than 100 µM. For the same compound, the TGI (SF-539 CNS) was 56.6 µM, the TGI (SK-MEL-2 melanoma) was greater than 100 µM and the TGI (SK-MEL-28 melanoma) was greater than 100 µM. The TGI (SK-OV-3 ovarian) was 70.3 µM, the TGI (SN12C renal) was greater than 100 µM and the TGI (SNB-75 CNS) was 39 µM. It also gave a TGI (SR leukemia) greater than 100 µM, a TGI (UACC-62 melanoma) greater than 100 µM and a TGI (UO-31 renal) of 58.6 µM.
